# Results: ChEMBL document CHEMBL1127540, “Three-dimensional pharmacophores from binding data” (J Med Chem, 1994)
# Starred links: 1 amine or outer side, 2 acyl side, 3 side chain; linkers in the order of their positions; H or OH if unused. Non-standard residues stand in square brackets, D forms with d. Residues, ends and D or L forms follow the SMILES beside them. *: point of attachment. Hexanoyl(5S-NH,4S-OH,6-Ph) = O=C(CC[C@H](O)[C@H](Cc1ccccc1)N[*:1])[*:2]; PheΨ(PO2HCH2)Gly = O=C(CCP(=O)(O)[C@H](Cc1ccccc1)N[*:1])[*:2]; Ahppa(3S,4S) = O=C(C[C@H](O)[C@H](Cc1ccccc1)N[*:1])[*:2]; X2 = CC(C)C[C@H](N[*:1])[C@@H](O)CN1CCC[C@@H]1C(=O)[*:2]; X10 = O=C([C@H]1CCCN1C[C@H](Cc1ccc(O)cc1)N[*:1])[*:2]; X6 = O=C(CC[C@@H](O)[C@H](Cc1ccccc1)N[*:1])[*:2]; X9 = O=C(CP(=O)(O)[C@H](Cc1ccccc1)N[*:1])[*:2]; X7 = NC(=O)C[C@H](N[*:1])[C@@H](O)CC(=O)[*:2]; Sta = CC(C)C[C@H](N)[C@@H](O)CC(=O)O; Boc = CC(C)(C)OC(=O)*; Lac = C[C@H](O)C(=O)O
# Biological target: Human immunodeficiency virus type 1 protease (Human immunodeficiency virus 1, UniProt Q72874)
# Assay: Binding affinity to HIV-1 protease
row,Ki [nM],SMILES
1,10,CC(=O)N[C@H](C(=O)N[C@H](C(=O)C[C@@H](Cc1ccccc1)[C@H](O)[C@H](Cc1ccccc1)NC(=O)[C@@H](NC(=O)[C@@H](NC(C)=O)C(C)C)C(C)C)C(C)C)C(C)C
2,14100,CC(=O)N[C@@H](CO)C(=O)N[C@@H](CCC(N)=O)C(=O)N[C@@H](CC(N)=O)C(=O)N[C@@H](Cc1ccccc1)CN1CCC[C@@H]1C(=O)N[C@H](C(=O)N[C@H](C(N)=O)C(C)C)C(C)C (stereo in doubt; 71)
3,977,CC[C@H](C)[C@H](NC(=O)[C@H]1CCCN1C[C@H](O)[C@H](CC(C)C)NC(=O)[C@H](CC(N)=O)NC(=O)[C@H](CC(C)C)NC(=O)[C@H](CO)NC(C)=O)C(=O)OC (Ac-SLN[X2]I-OMe)
4,19100,CC(C)C[C@H](NC(=O)[C@H](C)NC(=O)C[C@H](O)[C@H](CC(C)C)NC(=O)[C@@H](NC(=O)[C@@H](NC(=O)[C@H](C)O)C(C)C)C(C)C)[C@@H](O)CC(=O)O (H-[Lac]VV[Sta]A[Sta]-OH)
5,282,CC(C)(C)OC(=O)N[C@@H](Cc1ccccc1)[C@H](O)[C@@H](O)[C@H](Cc1ccccc1)NC(=O)OC(C)(C)C
6,4.9,CC[C@H](C)[C@H](NC(=O)OCc1ccccc1)C(=O)N[C@@H](Cc1ccccc1)[C@@H](O)[C@@H](CC(=O)[C@H](NC(=O)OCc1ccccc1)[C@@H](C)CC)Cc1ccccc1
7,11,CC[C@H](C)[C@H](NC(=O)[C@H]1CCCN1C[C@H](O)[C@H](CC(C)C)NC(=O)[C@H](CC(N)=O)NC(=O)[C@H](CC(C)C)NC(=O)[C@H](CO)NC(C)=O)C(=O)N[C@H](C(=O)OC)C(C)C (Ac-SLN[X2]IV-OMe)
8,12,CC(C)(C)OC(=O)N[C@@H](Cc1ccccc1)[C@H](O)[C@H](O)[C@H](Cc1ccccc1)NC(=O)OC(C)(C)C
9,5.01,CC[C@H](C)[C@H](NC(=O)[C@H](C(C)C)[C@@H](O)[C@H](O)[C@H](CC(C)C)NC(=O)OCc1ccccc1)C(=O)NCc1ccccn1
10,3020,CC(C)(C)OC(=O)N[C@H](Cc1ccccc1)[C@H](O)CC(=O)N[C@@H](CCC(=O)O)C(=O)N[C@@H](Cc1ccccc1)C(=O)O
11,1200,"COC(=O)[C@@H](NC(=O)[C@@H](NC(=O)C[C@H](O)[C@H](Cc1ccccc1)NC(=O)[C@H](C)NC(=O)[C@H](C)NC(=O)[C@H](CO)NC(=O)OC(C)(C)C)C(C)C)C(C)C (Boc-SAA[Ahppa(3S,4S)]VV-OMe)"
12,28.2,CC[C@H](C)[C@H](NC(=O)[C@H](C(C)C)[C@@H](O)[C@H](O)[C@H](CC(C)C)NC(=O)[C@H](Cc1c[nH]cn1)NC(=O)[C@H](Cc1ccccc1)NC(=O)OC(C)(C)C)C(=O)NCc1ccccn1
13,12900,CC(=O)N[C@@H](CO)C(=O)N[C@@H](CCC(N)=O)C(=O)N[C@@H](CC(N)=O)C(=O)N[C@@H](Cc1ccc(O)cc1)CN1CCC[C@@H]1C(=O)N[C@H](C(=O)N[C@H](C(N)=O)C(C)C)C(C)C (Ac-SQN[X10]VV-NH2)
14,2.09,NC(=O)C[C@H](NC(=O)OCc1ccccc1)C(=O)N[C@@H](Cc1ccccc1)C(=O)C(F)(F)CCc1ccccc1
15,61.7,"COC(=O)[C@@H](NC(=O)[C@@H](NC(=O)CC[C@H](O)[C@H](Cc1ccccc1)NC(=O)[C@H](C)NC(=O)[C@H](C)NC(=O)[C@@H](N)CO)C(C)C)C(C)C (H-SAA[Hexanoyl(5S-NH,4S-OH,6-Ph)]VV-OMe)"
16,12,CC(=O)N[C@H](C(=O)C[C@@H](Cc1ccccc1)[C@H](O)[C@H](Cc1ccccc1)NC(=O)[C@@H](NC(C)=O)C(C)C)C(C)C
17,70.8,CC[C@H](C)[C@H](NC(=O)[C@H]1CCCN1C(=O)[C@H](CO)NC(=O)[C@@H](NC(=O)[C@@H]1CCCN1C(=O)[C@H](Cc1ccccc1)NC(=O)[C@H](CC(N)=O)NC(=O)[C@H](CC(C)C)NC(=O)[C@@H](NC(=O)[C@@H](N)CS)[C@@H](C)O)[C@@H](C)CC)C(=O)O
18,4900,COC(=O)[C@@H](NC(=O)[C@@H](NC(=O)CC[C@@H](O)[C@H](Cc1ccccc1)NC(=O)[C@H](C)NC(=O)[C@H](C)NC(=O)[C@@H](N)CO)C(C)C)C(C)C (H-SAA[X6]VV-OMe)
19,24000,CC(C)(C)OC(=O)N[C@@H](Cc1ccccc1)[C@@H](O)C(=O)N[C@@H](CCC(=O)O)C(=O)N[C@@H](Cc1ccccc1)C(=O)O (stereo in doubt; 76)
20,0.219,CC(C)[C@H](NC(=O)OCc1ccccc1)C(=O)N[C@@H](Cc1ccccc1)[C@@H](O)[C@H](O)[C@H](Cc1ccccc1)NC(=O)OCc1ccccc1
21,18200,"CC(C)[C@H](NC(=O)[C@@H](NC(=O)C1CCCN1C[C@H](Cc1ccccc1)NC(=O)[C@H](C)NC(=O)[C@H](C)NC(=O)[C@@H](N)CO)C(C)C)C(N)=O (single isomer, unassigned)"
22,3720,CC[C@H](C)[C@H](NC(=O)C[C@H](O)[C@H](CC(N)=O)NC(=O)[C@H](CCC(N)=O)NC(=O)[C@H](CO)NC(=O)[C@@H](N)C(C)C)C(=O)N[C@H](C(=O)O)C(C)C (H-VSQ[X7]IV-OH)
23,2.69,CC(C)[C@H](NC(=O)OCc1ccccc1)C(=O)N[C@@H](Cc1ccccc1)C(=O)C(F)(F)CCc1ccccc1 (stereo in doubt; 12)

row,SMILES,Ki [nM]
1,COC(=O)[C@@H](NC(=O)[C@@H](NC(=O)CCP(=O)(O)[C@H](Cc1ccccc1)NC(=O)[C@H](C)NC(=O)[C@H](C)NC(=O)[C@@H](N)CO)C(C)C)C(C)C (H-SAA[PheΨ(PO2HCH2)Gly]VV-OMe),4370
2,COC(=O)[C@@H](NC(=O)[C@@H](NC(=O)CP(=O)(O)[C@H](Cc1ccccc1)NC(=O)[C@H](C)NC(=O)[C@H](C)NC(=O)[C@@H](N)CO)C(C)C)C(C)C (H-SAA[X9]VV-OMe),4470
